# Experiments:
# SNB-75 = test: Cytotoxicity against human SNB75 cells assessed as growth inhibition at 10 uM after 48 hrs by SRB assay; format: functional; conditions: SNB-75, 48 h, read-out: GI
# NCI-H322M = test: Cytotoxicity against human NCI-H322M cells assessed as growth inhibition at 10 uM after 48 hrs by SRB assay; format: functional; conditions: read-out: GI
# NCI-H522 = test: Cytotoxicity against human NCI-H522 cells assessed as growth inhibition at 10 uM after 48 hrs by SRB assay; format: functional; conditions: NCI-H522, 48 h, read-out: GI
# SF-295 [1] = test: Cytotoxicity against human SF295 cells assessed as growth inhibition at 10 uM after 48 hrs by SRB assay; format: functional; conditions: SF-295, 48 h, read-out: GI
# CCRF-CEM = test: Cytotoxicity against human CCRF-CEM cells assessed as growth inhibition at 10 uM after 48 hrs by SRB assay; format: functional; conditions: read-out: GI
# Hs-578T = test: Cytotoxicity against human Hs578T cells assessed as growth inhibition at 10 uM after 48 hrs by SRB assay; format: functional; conditions: read-out: GI
# A549 = test: Cytotoxicity against human A549/ATCC cells assessed as growth inhibition at 10 uM after 48 hrs by SRB assay; format: functional; conditions: A549, 48 h, read-out: GI
# SW-620 = test: Cytotoxicity against human SW620 cells assessed as growth inhibition at 10 uM after 48 hrs by SRB assay; format: functional; conditions: SW-620, 48 h, read-out: GI
# SN12C = test: Cytotoxicity against human SN12C cells assessed as growth inhibition at 10 uM after 48 hrs by SRB assay; format: functional; conditions: read-out: GI
# SNB-19 = test: Cytotoxicity against human SNB19 cells assessed as growth inhibition at 10 uM after 48 hrs by SRB assay; format: functional; conditions: SNB-19, 48 h, read-out: GI
# SK-OV-3 = test: Cytotoxicity against human SKOV3 cells assessed as growth inhibition at 10 uM after 48 hrs by SRB assay; format: functional; conditions: SK-OV-3, 48 h, read-out: GI
# SR = test: Cytotoxicity against human SR cells assessed as growth inhibition at 10 uM after 48 hrs by SRB assay; format: functional; conditions: read-out: GI
# NCI-H23 [2] = test: Cytotoxicity against human NCI-H23 cells assessed as growth inhibition at 10 uM after 48 hrs by SRB assay; format: functional; conditions: NCI-H23, 48 h, read-out: GI
# NCI-H460 = test: Cytotoxicity against human NCI-H460 cells assessed as growth inhibition at 10 uM after 48 hrs by SRB assay; format: functional; conditions: NCI-H460, 48 h, read-out: GI
# U-251 = test: Cytotoxicity against human U251 cells assessed as growth inhibition at 10 uM after 48 hrs by SRB assay; format: functional; conditions: U-251, 48 h, read-out: GI
# HT-29 = test: Cytotoxicity against human HT-29 cells assessed as growth inhibition at 10 uM after 48 hrs by SRB assay; format: functional; conditions: HT-29, 48 h, read-out: GI
# TK-10 = test: Cytotoxicity against human TK10 cells assessed as growth inhibition at 10 uM after 48 hrs by SRB assay; format: functional; conditions: TK-10, 48 h, read-out: GI
# SK-MEL-2 = test: Cytotoxicity against human SK-MEL-2 cells assessed as growth inhibition at 10 uM after 48 hrs by SRB assay; format: functional; conditions: SK-MEL-2, 48 h, read-out: GI
# KM12 = test: Cytotoxicity against human KM12 cells assessed as growth inhibition at 10 uM after 48 hrs by SRB assay; format: functional; conditions: KM12, 48 h, read-out: GI
# RPMI-8226 [3] = test: Cytotoxicity against human RPMI8226 cells assessed as growth inhibition at 10 uM after 48 hrs by SRB assay; format: functional; conditions: RPMI-8226, 48 h, read-out: GI
# MDA-MB-468 [4] = test: Cytotoxicity against human MDA-MB-468 cells assessed as growth inhibition at 10 uM after 48 hrs by SRB assay; format: functional; conditions: MDA-MB-468, 48 h, read-out: GI
# [5] = target: Tyrosine-protein kinase ZAP-70 (Homo sapiens) (UniProt P43403); test: Inhibition of ZAP-70 kinase (unknown origin) using [33P]-ATP at 10 uM after 20 to 40 mins by scintillation counting analysis
# PC-3 = test: Cytotoxicity against human PC3 cells after 48 hrs by SRB assay; format: functional; conditions: PC-3, 48 h
# SF-295 [6] = test: Cytotoxicity against human SF295 cells after 48 hrs by SRB assay; format: functional; conditions: SF-295, 48 h
# NCI-H23 [7] = test: Cytotoxicity against human NCI-H23 cells after 48 hrs by SRB assay; format: functional; conditions: NCI-H23, 48 h
# MCF7 [8] = test: Cell cycle arrest in human MCF7 cells assessed as accumulation at G1 phase at 10 uM after 24 hrs by propidium iodide staining-based FACS analysis (reference value: 58.50 %); format: functional
# MDA-MB-468 [9] = test: Cytotoxicity against human MDA-MB-468 cells after 48 hrs by SRB assay; format: functional; conditions: MDA-MB-468, 48 h
# [10] = target: Proto-oncogene tyrosine-protein kinase Src (Homo sapiens) (UniProt P12931); test: Inhibition of Src kinase (unknown origin) using [33P]-ATP at 10 uM after 20 to 40 mins by scintillation counting analysis
# MCF7 [11] = test: Cell cycle arrest in human MCF7 cells assessed as accumulation at G0 phase at 10 uM after 24 hrs by propidium iodide staining-based FACS analysis (reference value: 1.30 %); format: functional
# MCF7 [12] = test: Cytotoxicity against human MCF7 cells after 48 hrs by SRB assay; format: functional; conditions: MCF7, 48 h
# MCF7 [13] = test: Cell cycle arrest in human MCF7 cells assessed as accumulation at S phase at 10 uM after 24 hrs by propidium iodide staining-based FACS analysis (reference value: 36.60 %); format: functional
# MCF7 [14] = test: Cell cycle arrest in human MCF7 cells assessed as accumulation at G2/M phase at 10 uM after 24 hrs by propidium iodide staining-based FACS analysis (reference value: 4.80 %); format: functional
# BT-549 = test: Cytotoxicity against human BT549 cells after 48 hrs by SRB assay; format: functional; conditions: BT-549, 48 h, pooled result: one value given for 51 cell lines, strains, targets or settings
# [15] = target: Serine/threonine-protein kinase B-raf (Homo sapiens) (UniProt P15056); test: Inhibition of B-Raf kinase (unknown origin) using [33P]-ATP at 10 uM after 20 to 40 mins by scintillation counting analysis
# T47D = test: Cytotoxicity against human T47D cells after 48 hrs by SRB assay; format: functional
# RPMI-8226 [16] = test: Cytotoxicity against human RPMI8226 cells after 48 hrs by SRB assay; format: functional; conditions: RPMI-8226, 48 h
# [17] = read-out: LC50 (the source's name)
# Proto-oncogene tyrosine-protein kinase Src (Homo sapiens), sequence (P12931 2-536 limits assumed): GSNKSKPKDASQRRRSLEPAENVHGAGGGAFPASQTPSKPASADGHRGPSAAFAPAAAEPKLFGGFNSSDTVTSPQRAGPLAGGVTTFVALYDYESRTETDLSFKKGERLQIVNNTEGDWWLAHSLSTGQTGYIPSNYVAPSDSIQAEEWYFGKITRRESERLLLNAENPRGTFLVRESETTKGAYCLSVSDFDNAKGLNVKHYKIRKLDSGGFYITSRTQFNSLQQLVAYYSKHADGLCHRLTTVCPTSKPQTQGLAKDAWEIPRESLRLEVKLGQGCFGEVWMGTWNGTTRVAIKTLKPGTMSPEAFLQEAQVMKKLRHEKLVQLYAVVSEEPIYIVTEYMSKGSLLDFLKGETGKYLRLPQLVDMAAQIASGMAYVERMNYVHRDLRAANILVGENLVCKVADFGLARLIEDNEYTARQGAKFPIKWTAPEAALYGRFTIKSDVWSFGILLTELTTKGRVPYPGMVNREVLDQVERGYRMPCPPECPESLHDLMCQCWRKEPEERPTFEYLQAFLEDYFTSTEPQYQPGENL
# Tyrosine-protein kinase ZAP-70 (Homo sapiens), sequence (P43403 whole entry): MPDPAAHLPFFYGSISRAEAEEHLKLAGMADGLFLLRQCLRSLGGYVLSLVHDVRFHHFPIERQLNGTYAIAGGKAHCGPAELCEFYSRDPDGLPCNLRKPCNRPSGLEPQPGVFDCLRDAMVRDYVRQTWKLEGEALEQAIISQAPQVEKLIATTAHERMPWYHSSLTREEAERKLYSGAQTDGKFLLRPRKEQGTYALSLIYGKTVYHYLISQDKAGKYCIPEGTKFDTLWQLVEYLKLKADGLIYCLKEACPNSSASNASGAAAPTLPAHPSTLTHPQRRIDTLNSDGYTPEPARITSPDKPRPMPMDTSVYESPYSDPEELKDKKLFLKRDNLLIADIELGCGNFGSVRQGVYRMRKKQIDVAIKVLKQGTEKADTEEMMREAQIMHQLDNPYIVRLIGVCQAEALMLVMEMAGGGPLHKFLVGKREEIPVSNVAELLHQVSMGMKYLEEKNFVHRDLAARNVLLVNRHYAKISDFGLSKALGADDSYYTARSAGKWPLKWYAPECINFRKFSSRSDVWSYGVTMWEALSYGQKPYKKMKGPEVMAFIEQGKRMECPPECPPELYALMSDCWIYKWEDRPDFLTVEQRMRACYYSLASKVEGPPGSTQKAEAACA
# Serine/threonine-protein kinase B-raf (Homo sapiens), sequence (P15056 whole entry): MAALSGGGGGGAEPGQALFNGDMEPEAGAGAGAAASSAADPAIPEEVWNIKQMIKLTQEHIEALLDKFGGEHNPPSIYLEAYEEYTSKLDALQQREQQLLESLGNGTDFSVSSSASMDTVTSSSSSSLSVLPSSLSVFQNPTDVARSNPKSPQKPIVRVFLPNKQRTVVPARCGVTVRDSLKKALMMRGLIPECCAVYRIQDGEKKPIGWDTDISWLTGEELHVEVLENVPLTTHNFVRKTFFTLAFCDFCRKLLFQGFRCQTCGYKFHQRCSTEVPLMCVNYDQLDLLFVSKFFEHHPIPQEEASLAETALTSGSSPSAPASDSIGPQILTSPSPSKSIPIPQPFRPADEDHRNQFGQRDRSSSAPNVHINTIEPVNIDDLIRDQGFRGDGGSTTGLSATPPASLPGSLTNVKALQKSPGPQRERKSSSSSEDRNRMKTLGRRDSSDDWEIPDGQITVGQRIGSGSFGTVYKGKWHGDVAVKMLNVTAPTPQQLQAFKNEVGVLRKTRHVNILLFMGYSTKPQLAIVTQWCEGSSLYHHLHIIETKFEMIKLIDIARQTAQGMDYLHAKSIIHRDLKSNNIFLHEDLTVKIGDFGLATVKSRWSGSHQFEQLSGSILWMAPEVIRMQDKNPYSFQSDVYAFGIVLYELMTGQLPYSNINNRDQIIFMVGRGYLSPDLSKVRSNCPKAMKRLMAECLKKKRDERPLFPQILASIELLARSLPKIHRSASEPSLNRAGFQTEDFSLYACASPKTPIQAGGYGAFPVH
compound,measurement,setting,value
O=C(Nc1ccccc1)Nc1ccc(NC2=NS(=O)(=O)c3ccccc32)cc1,inhibition of growth at 10 µM,SNB-75,19%
same,inhibition of growth at 10 µM,NCI-H322M,-8%
same,inhibition of growth at 10 µM,NCI-H522,-6%
same,inhibition of growth at 10 µM,SF-295 [1],1%
same,inhibition of growth at 10 µM,CCRF-CEM,5%
same,inhibition of growth at 10 µM,Hs-578T,-9%
same,inhibition of growth at 10 µM,A549,3%
same,inhibition of growth at 10 µM,SW-620,-4%
same,inhibition of growth at 10 µM,SN12C,0%
same,inhibition of growth at 10 µM,SNB-19,-5%
same,inhibition of growth at 10 µM,SK-OV-3,-7%
same,inhibition of growth at 10 µM,SR,3%
same,inhibition of growth at 10 µM,NCI-H23 [2],3%
same,inhibition of growth at 10 µM,NCI-H460,-3%
same,inhibition of growth at 10 µM,U-251,1%
same,inhibition of growth at 10 µM,HT-29,1%
same,inhibition of growth at 10 µM,TK-10,-12%
same,inhibition of growth at 10 µM,SK-MEL-2,-14%
same,inhibition of growth at 10 µM,KM12,-6%
same,inhibition of growth at 10 µM,RPMI-8226 [3],-2%
same,inhibition of growth at 10 µM,MDA-MB-468 [4],-11%
O=C(Nc1ccc(OC2=NS(=O)(=O)c3ccccc32)cc1)Nc1ccccc1Cl,inhibition of growth at 10 µM,SNB-75,18%
same,inhibition of growth at 10 µM,NCI-H322M,2%
same,inhibition of growth at 10 µM,NCI-H522,10%
same,inhibition of growth at 10 µM,SF-295 [1],8%
same,inhibition of growth at 10 µM,CCRF-CEM,57%
same,inhibition of growth at 10 µM,Hs-578T,-1%
same,inhibition of growth at 10 µM,A549,7%
same,inhibition of growth at 10 µM,SW-620,-5%
same,inhibition of growth at 10 µM,SN12C,17%
same,inhibition of growth at 10 µM,SNB-19,-9%
same,inhibition of growth at 10 µM,SK-OV-3,-7%
same,inhibition of growth at 10 µM,SR,9%
same,inhibition of growth at 10 µM,NCI-H23 [2],8%
same,inhibition of growth at 10 µM,NCI-H460,-4%
same,inhibition of growth at 10 µM,U-251,0%
same,inhibition of growth at 10 µM,HT-29,4%
same,inhibition of growth at 10 µM,TK-10,-17%
same,inhibition of growth at 10 µM,SK-MEL-2,-1%
same,inhibition of growth at 10 µM,KM12,10%
same,inhibition of growth at 10 µM,RPMI-8226 [3],7%
same,inhibition of growth at 10 µM,MDA-MB-468 [4],8%
O=C(Nc1ccc(Cl)cc1)Nc1ccc2c(c1)C(Nc1ccc(Cl)cc1Cl)=NS2(=O)=O,inhibition of growth at 10 µM,SNB-75,30%
same,inhibition,[5],13%
same,GI50,PC-3,2820 nM
same,TGI,PC-3,> 100 µM
same,CC50,PC-3; [17],> 100 µM
same,GI50,SF-295 [6],2880 nM
same,TGI,SF-295 [6],> 100 µM
same,CC50,SF-295 [6]; [17],> 100 µM
same,GI50,NCI-H23 [7],2690 nM
same,TGI,NCI-H23 [7],12.3 µM
same,CC50,NCI-H23 [7]; [17],> 100 µM
same,Activity,MCF7 [8],78.3%
same,inhibition of growth at 10 µM,NCI-H322M,27%
same,GI50,MDA-MB-468 [9],2750 nM
same,TGI,MDA-MB-468 [9],> 100 µM
same,CC50,MDA-MB-468 [9]; [17],> 100 µM
same,inhibition of growth at 10 µM,NCI-H522,77%
same,inhibition of growth at 10 µM,SF-295 [1],96%
same,inhibition of growth at 10 µM,CCRF-CEM,82%
same,inhibition of growth at 10 µM,Hs-578T,9%
same,inhibition of growth at 10 µM,A549,69%
same,inhibition,[10],58%
same,inhibition of growth at 10 µM,SW-620,69%
same,inhibition of growth at 10 µM,SN12C,67%
same,inhibition of growth at 10 µM,SNB-19,64%
same,inhibition of growth at 10 µM,SK-OV-3,15%
same,Activity,MCF7 [11],1.4%
same,inhibition of growth at 10 µM,SR,60%
same,inhibition of growth at 10 µM,NCI-H23 [2],92%
same,GI50,MCF7 [12],3.6 µM
same,inhibition of growth at 10 µM,NCI-H460,87%
same,inhibition of growth at 10 µM,U-251,73%
same,Activity,MCF7 [13],15.2%
same,Activity,MCF7 [14],6.4%
same,GI50,BT-549,5.7 µM
same,inhibition of growth at 10 µM,HT-29,57%
same,inhibition of growth at 10 µM,TK-10,57%
same,inhibition of growth at 10 µM,SK-MEL-2,50%
same,inhibition of growth at 10 µM,KM12,80%
same,inhibition,[15],-8%
same,GI50,T47D,2630 nM
same,TGI,T47D,> 100 µM
same,CC50,T47D; [17],> 100 µM
same,inhibition of growth at 10 µM,RPMI-8226 [3],98%
same,inhibition of growth at 10 µM,MDA-MB-468 [4],74%
same,GI50,RPMI-8226 [16],2190 nM
same,TGI,RPMI-8226 [16],15.5 µM
same,CC50,RPMI-8226 [16]; [17],> 100 µM

# Source: ChEMBL document CHEMBL2331514, “Structure-based design and synthesis of novel pseudosaccharine derivatives as antiproliferative agents and kinase inhibitors” (Eur J Med Chem, 2013)
